Reference: PubChem BioAssay (NCI)
Values joined by “and” are separate entries in the source; they are usually repeats but may differ in a detail not shown here. Equal entries are not always repeated.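 A five-concentration, 48-hour dose response in 96-well plates underlies each endpoint, interpolated linearly between surrounding concentrations. The concentration for 50% growth inhibition is given as GI50. TGI marks complete inhibition of growth.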

test system: MDA-MB-468 breast; assay: NCI tumour cell line growth inhibition, 48 h

Going from `Nc1c(C(=O)Nc2cccc(Br)c2)sc2nc3c(cc12)C(=O)CCC3` to `O=C1c2c(c3c4cc(Br)ccc4[nH]c3c3ccc4ccccc4c23)C(=O)N1CCN1CCCCC1`, the GI50 rises from 0.259 µM to 1.62 µM (6.3-fold).

First: COc1ccc2[nH]cc(-c3nc(-c4c[nH]c5ncccc45)cs3)c2c1
Second: Cn1cc(C2=C(c3cn(C)c4cc(C(N)=O)ccc34)C(=O)NC2=O)c2ccccc21
The GI50 of the first is 2.3-fold higher: 2.69 µM for the first, 1.18 µM for the second.

Going from `Nc1nccc2c1ccn2-c1ccc(NC(=O)c2ccc(N3CCOCC3)c(C(F)(F)F)c2)cc1` to `COc1ccncc1C#Cc1cncc(C(=O)Nc2ccc(CN3CCN(C)CC3)c(C(F)(F)F)c2)c1`, the GI50 rises from 2.16 µM to 24.7 µM (11-fold).

First: Cc1csc(Nc2nc(-c3cccc(Br)c3)nc(C(Cl)(Cl)Cl)n2)n1
Second: COc1cc(-c2nn(-c3cccc(NC(=O)Nc4ccc(Cl)c(Cl)c4)c3)cc2-c2ccncc2)ccc1Cl
The GI50 of the first is 1.6-fold lower: 0.354 µM for the first, 0.567 µM for the second.

`CS(=O)(=O)CCCn1c(=O)c(Oc2ccc(F)cc2F)cc2cnc(NC3CCOCC3)nc21` and `C[C@H]1Oc2cc(cnc2N)-c2c(nn(C)c2C#N)CN(C)C(=O)c2ccc(F)cc21` cannot be ordered by GI50: > 25 µM for the first, 30.8 µM for the second.

Compared with `CC1(C)OCCn2c1nc1c(N3CCOCC3)nc(-c3cnc(N)nc3)nc12`, `Cc1nc2cnc(N)c(C#Cc3cncc(C(=O)Nc4ccc(CN5CCN(C)CC5)c(C(F)(F)F)c4)c3)c2nc1C` is 6.6-fold higher in GI50: 0.339 µM for the first, 2.25 µM for the second.

First: Cc1ccc(/C=C/c2c(C(=O)/C=C/c3ccc(C(F)(F)F)cc3)c(C)nc3ccccc23)cc1
Second: C=CC(=O)N1CCC(C2CCNc3c(C(N)=O)c(-c4ccc(Oc5ccccc5)cc4)nn32)CC1 (stereo not drawn)
The GI50 of the first is 2.4-fold higher: 1.84 µM for the first, 0.752 µM for the second.

First: COc1cc(CNCCCN2C(=O)c3ccc4c5c(ccc(c35)C2=O)C(=O)N(CCCNCc2cc(OC)c(OC)c(OC)c2)C4=O)cc(OC)c1OC
Second: COc1cc(C2c3cc4c(cc3C(O)C(CO)C2CO)OCO4)cc(OC)c1OC (stereo not drawn)
The GI50 of the first is 1.8-fold lower: 0.153 µM for the first, 0.27 µM for the second.

Compared with `COc1cccc2c1C(=O)c1c(O)c3c(c(O)c1C2=O)CC(O)(/C(C)=N/NC(=O)CCC(=O)N/N=C(\C)C1(O)Cc2c(O)c4c(c(O)c2C(OC2CC(N)C(O)C(C)O2)C1)C(=O)c1c(OC)cccc1C4=O)CC3OC1CC(N)C(O)C(C)O1` (stereo not drawn), `COC12C=C/C(=C(/C(=O)OCc3ccncc3)C(=O)CCCCCCCCC3(OC)C=C/C(=C(/C(=O)OCc4ccncc4)C(=O)CCCCCCCC1)O3)O2` is 6.3-fold higher in GI50: 0.101 µM for the first, 0.635 µM for the second.

`O=c1[nH]c(=O)n(C2CC(O)C(CO)O2)cc1CO` (stereo not drawn) and `N=c1ccn2c(n1)OC1C(O)C(CO)OC12` (stereo not drawn) cannot be ordered by GI50: > 100 µM for the first, > 100 µM for the second.

First: Cn1cnc([N+](=O)[O-])c1S(=O)(=O)Oc1ccccc1
Second: CCCCCCNC(=O)c1nc(-c2ccccc2)oc1Cc1ccc(OP(=O)(O)O)cc1
The GI50 of the first is 7.3-fold lower: 1.95 µM for the first, 14.3 µM for the second.

`CCOC(=O)C(=Cc1cccc(Cl)c1)C(=O)OCC` and `N#C/C=C(\c1ccc([N+](=O)[O-])cc1)n1nnc2cc(Cl)c(Cl)cc21` are within 1.5-fold of each other in GI50: 1.81 µM for the first, 1.37 µM for the second.

Going from `O=c1cc2oc3cc(O)c(O)cc3c(-c3ccccc3O)c-2cc1O` to `CC(C)=CCc1cc(O)cc2c1OC(C=C(C)C)C1=C2C(=O)C2=C(NCCS2(=O)=O)C1=O` (stereo not drawn), the GI50 falls from 12.6 µM to 2.54 µM (5-fold).

Compared with `Nc1c(C(=O)Nc2cccc(Br)c2)sc2nc3c(cc12)C(=O)CCC3`, `O=C1c2c(c3c4cc(Br)ccc4[nH]c3c3ccc4ccccc4c23)C(=O)N1CCN1CCCCC1` is lower in TGI: > 100 µM for the first, 3.52 µM for the second.

Compared with `COc1ccc2[nH]cc(-c3nc(-c4c[nH]c5ncccc45)cs3)c2c1`, `Cn1cc(C2=C(c3cn(C)c4cc(C(N)=O)ccc34)C(=O)NC2=O)c2ccccc21` is lower in TGI: > 100 µM for the first, 15.9 µM for the second.

Going from `Nc1nccc2c1ccn2-c1ccc(NC(=O)c2ccc(N3CCOCC3)c(C(F)(F)F)c2)cc1` to `COc1ccncc1C#Cc1cncc(C(=O)Nc2ccc(CN3CCN(C)CC3)c(C(F)(F)F)c2)c1`, the TGI rises from 16.5 µM to > 100 µM.

`Cc1csc(Nc2nc(-c3cccc(Br)c3)nc(C(Cl)(Cl)Cl)n2)n1` and `COc1cc(-c2nn(-c3cccc(NC(=O)Nc4ccc(Cl)c(Cl)c4)c3)cc2-c2ccncc2)ccc1Cl` are within 1.5-fold of each other in TGI: 1.55 µM for the first, 2.27 µM for the second.

`CS(=O)(=O)CCCn1c(=O)c(Oc2ccc(F)cc2F)cc2cnc(NC3CCOCC3)nc21` and `C[C@H]1Oc2cc(cnc2N)-c2c(nn(C)c2C#N)CN(C)C(=O)c2ccc(F)cc21` cannot be ordered by TGI: > 25 µM for the first, > 100 µM for the second.

Compared with `CC1(C)OCCn2c1nc1c(N3CCOCC3)nc(-c3cnc(N)nc3)nc12`, `Cc1nc2cnc(N)c(C#Cc3cncc(C(=O)Nc4ccc(CN5CCN(C)CC5)c(C(F)(F)F)c4)c3)c2nc1C` is 6.1-fold higher in TGI: 2.6 µM for the first, 15.9 µM for the second.

First: Cc1ccc(/C=C/c2c(C(=O)/C=C/c3ccc(C(F)(F)F)cc3)c(C)nc3ccccc23)cc1
Second: N#Cc1c(-c2ccc(F)cc2)c(-c2ccc(F)cc2)nn(CCO)c1=O
The TGI of the first is lower: 3.53 µM for the first, > 100 µM for the second.

`COc1cc(CNCCCN2C(=O)c3ccc4c5c(ccc(c35)C2=O)C(=O)N(CCCNCc2cc(OC)c(OC)c(OC)c2)C4=O)cc(OC)c1OC` and `COc1cccc2c1C(=O)c1c(O)c3c(c(O)c1C2=O)CC(O)(/C(C)=N/NC(=O)CCC(=O)N/N=C(\C)C1(O)Cc2c(O)c4c(c(O)c2C(OC2CC(N)C(O)C(C)O2)C1)C(=O)c1c(OC)cccc1C4=O)CC3OC1CC(N)C(O)C(C)O1` (stereo not drawn) are within 1.5-fold of each other in TGI: 0.406 µM for the first, 0.34 µM for the second.

`O=c1[nH]c(=O)n(C2CC(O)C(CO)O2)cc1CO` (stereo not drawn) and `N=c1ccn2c(n1)OC1C(O)C(CO)OC12` (stereo not drawn) cannot be ordered by TGI: > 100 µM for the first, > 100 µM for the second.

First: Cn1cnc([N+](=O)[O-])c1S(=O)(=O)Oc1ccccc1
Second: C=CC(=O)N1CCC(C2CCNc3c(C(N)=O)c(-c4ccc(Oc5ccccc5)cc4)nn32)CC1 (stereo not drawn)
The TGI of the first is 1.8-fold lower: 4.68 µM for the first, 8.52 µM for the second.

First: CCOC(=O)C(=Cc1cccc(Cl)c1)C(=O)OCC
Second: CCCCCCNC(=O)c1nc(-c2ccccc2)oc1Cc1ccc(OP(=O)(O)O)cc1
The TGI of the first is 7.3-fold lower: 3.85 µM for the first, 28.2 µM for the second.

First: O=c1cc2oc3cc(O)c(O)cc3c(-c3ccccc3O)c-2cc1O
Second: CC(C)=CCc1cc(O)cc2c1OC(C=C(C)C)C1=C2C(=O)C2=C(NCCS2(=O)=O)C1=O (stereo not drawn)
The TGI of the first is 5.4-fold higher: 42.6 µM for the first, 7.89 µM for the second.

Going from `N#C/C=C(\c1ccc([N+](=O)[O-])cc1)n1nnc2cc(Cl)c(Cl)cc21` to `COC12C=C/C(=C(/C(=O)OCc3ccncc3)C(=O)CCCCCCCCC3(OC)C=C/C(=C(/C(=O)OCc4ccncc4)C(=O)CCCCCCCC1)O3)O2`, the TGI falls from 3.33 µM to 2 µM (1.7-fold).

For `O=C(c1c(F)ccc(NS(=O)(=O)N2CC[C@@H](F)C2)c1F)c1c[nH]c2ncc(-c3cnc(C4CC4)nc3)cc12`, the GI50 was 3.93 µM and 3.67 µM.
With `O=C(c1ccc(F)c(F)c1Nc1ccc(I)cc1F)N1CC(O)([C@@H]2CCCCN2)C1` the GI50 was 3.75 µM and 1.79 µM.
`CC(=O)c1cc2c(o1)C(=O)c1ccccc1C2=O` was tested, and the GI50 was 0.912 µM and 1.26 µM.

In the case of `O=C(c1c(F)ccc(NS(=O)(=O)N2CC[C@@H](F)C2)c1F)c1c[nH]c2ncc(-c3cnc(C4CC4)nc3)cc12`, the TGI was > 10 µM and 27.9 µM.
In the case of `O=C(c1ccc(F)c(F)c1Nc1ccc(I)cc1F)N1CC(O)([C@@H]2CCCCN2)C1`, the TGI was 16.2 µM and > 8.97 µM.
For `CC(=O)c1cc2c(o1)C(=O)c1ccccc1C2=O`, the TGI was 2.54 µM and 2.8 µM.
